row,melting point [°C],SMILES
1,312 to 314,COc1cc(NC(=O)N2CCCC2)c(S(C)(=N)=O)cc1OC (centres undefined)
2,224 to 234,CC(C)(C)c1cc(Cc2cc(C(C)(C)C)cc(-n3nc4ccc(S(=O)(=O)c5ccccc5)cc4n3)c2O)c(O)c(-n2nc3ccc(S(=O)(=O)c4ccccc4)cc3n2)c1
3,33,CCCCCCCCCCCCCCCCCCOc1nc(OCCCCCCCCCCCCCCCCCC)nc(Oc2cc(-c3ccccc3)c(O)c(-c3ccccc3)c2)n1
4,158,COCCOCOc1cc(C(ON=C(C(=O)O)c2csc(NC(c3ccccc3)(c3ccccc3)c3ccccc3)n2)C(=O)OC(c2ccccc2)c2ccccc2)cc(C#N)c1OCOCCOC (centres undefined)
5,66 to 70,CCCCCCCCCCCCCCCCCCOC(=O)CCSCc1c(C)c(O)c(C)c(CSCCC(=O)OCCCCCCCCCCCCCCCCCC)c1C
6,209,Nc1ncc(Br)cc1[N+](=O)[O-]
7,124 to 125,CCCCCCC=CC(OC(=O)c1ccccc1)C(COC1OC(COCC(=O)O)C(OCC(=O)O)C(OC(=O)c2ccccc2)C1OC(=O)c1ccccc1)NC(=O)CCCCCCCCC(=O)OC (centres undefined)
8,133,N=S(=O)(c1ccccc1)c1cccs1 (centres undefined)
9,6,FC(F)(F)c1ccc(Cl)nc1Cl
10,80 to 81,FC(F)(F)C(F)(F)C(F)(F)C(F)(F)C(F)(F)C(F)(F)C(F)(F)C(F)(F)C(F)(F)C(F)(F)CC[Si](Br)(CCC(F)(F)C(F)(F)C(F)(F)C(F)(F)C(F)(F)C(F)(F)C(F)(F)C(F)(F)C(F)(F)C(F)(F)F)CCC(F)(F)C(F)(F)C(F)(F)C(F)(F)C(F)(F)C(F)(F)C(F)(F)C(F)(F)C(F)(F)C(F)(F)F
11,0,CN(C)c1ccccn1

# Second part, the molecule before the results:
row,SMILES,melting point [°C]
1,CCC(C=CC(C)C1CCC2C3CC=C4CC(OC(=O)N(CC(COC(c5ccccc5)(c5ccccc5)c5ccccc5)C(=O)NC)C(C)C)CCC4(C)C3CCC12C)C(C)C (centres undefined),92 to 93
2,CCCCCCC1(CCCCCC)c2cc(-c3ccc4c(c3)nc(N)c3nc(COCC)n(CC(C)(C)O)c34)ccc2-c2ccc(-c3ccc4c(c3)nc(N)c3nc(COCC)n(CC(C)(C)O)c34)cc21,261 to 265
3,CCCCCCCCCCCCSc1c(SCCCCCCCCCCCC)c(SCCCCCCCCCCCC)c(SCCCCCCCCCCCC)c(SCCCCCCCCCCCC)c1SCCCCCCCCCCCC,44 to 45
4,C=CCOC(=O)NC(=O)C(c1ccccc1)c1ccccc1,118 to 120
5,Cc1ccc(-c2c(-c3ccc(S(N)(=O)=O)cc3)[nH]c3ccccc23)cc1C,251 to 253
6,C=CCOC1C(NC(C)=O)C(OCc2ccccc2)OC(COCc2ccccc2)C1OC1(N)OC(COCc2ccccc2)C(OCc2ccccc2)C(OCc2ccccc2)C1C(=O)OCC(Cl)(Cl)Cl (centres undefined),186 to 188
7,CCCCCCCCCCCCCCCCS(=O)(=O)Nc1ccc2c(c1)C(NS(=O)(=O)CCCCCCCCCCCCCCCC)(c1ccccc1)C=N2 (centres undefined),210 to 212
8,CC1CC2C3CCC4=CC(=O)C=CC4(C)C3(Cl)C(O)CC2(C)C1(O)C(=O)CO (centres undefined),217 to 222
9,N=C(NC(=O)OCc1ccccc1)N(CCCC(NC(=O)C(Cc1ccccc1)NC(=O)c1ccccc1)C(=O)Oc1cccc2ccccc12)C(=O)OCc1ccccc1 (centres undefined),177 to 185
10,COc1ccc(C(CCCC(C(=O)C(CCCC(c2ccc(OC)c(OC)c2)N2C(=O)c3ccccc3C2=O)N2C(=O)c3ccccc3C2=O)N2C(=O)c3ccccc3C2=O)N2C(=O)c3ccccc3C2=O)cc1OC (centres undefined),195
11,CCCCCCCCCCN(CCCCN(CCCN(CCCCCCCCCC)C(=O)c1cccc(O)c1O)C(=O)c1cccc(O)c1O)C(=O)c1cccc(O)c1O,63 to 65
12,CN=S(=O)(c1nc(-c2ccc(F)cc2)cs1)C(C)c1ccc(C(F)(F)F)nc1 (centres undefined),89 to 94
13,CC(NC(=O)C(CC(C(=O)O)C(C)(C)C)NC(=O)C(CC(C(=O)O)C(C)(C)C)NC(=O)C(NC(=O)OCc1ccccc1)C(C)C)C(=O)NC(CC(C(=O)O)C(C)(C)C)C(=O)NC(CC(N)=O)C(=O)OC(C)(C)C (centres undefined),217 to 219

# — a melting point compilation (Tetko et al.)
